{"source": "patent US20160287553A1", "about": "“TRANSLATION INHIBITORS IN HIGH-DOSE CHEMO- AND/OR HIGH-DOSE RADIOTHERAPY” (DEUTSCHES KREBSFORSCHUNGSZENTRUM, priority 2013, published 2016)", "key": {"[1]": {"tested_on": "Primary human T cells", "assay": "Ionizing radiation (IR)-induced apoptosis in T cells", "type": "cell-based", "description": "(§1) DNA fragmentation was determined by FACS.\nThe radioprotective effect mediated by Roc-A was the highest when cells were treated with Roc-A 1 h before radiation of cells (FIG. 1d). However, when cells were treated 4 h after radiation, the radioprotective effect was still higher than 50% (FIG. 1d)."}, "[2]": {"tested_on": "NK cells", "assay": "Etoposide-induced apoptosis in NK cells", "type": "cell-based, human", "conditions": "NK cells (FIG. 1c)", "description": "as §1\nNext, we asked whether Roc-A could also protect other normal primary cells from DNA damage-induced toxicity. To address this question, we examined the protective effect of Roc-A on Etoposide-treated human peripheral blood B cells, NK cells, neutrophils, cardiomyocytes and murine hematopoietic stem and progenitor cells (HSPCs)."}, "[3]": {"tested_on": "p53-knockdown T cells", "assay": "Etoposide-induced cell death in p53 siRNA knock-down T cells", "type": "cell-based, human", "conditions": "Etoposide 50 μM, Roc-A 75 nM, 24 h (FIG. 4a)", "description": "as §1\nsiRNAs specific for p53 mRNA was 5′-[…]tt-3′ (SEQ ID NO: 1; [Applied Biosystems, Darmstadt, Germany]). 1.5×10^7 human peripheral blood T cells were transfected with 2 μM of p53 siRNA or of scrambled siRNA (Qiagen, Hilden, Germany) using Amaxa Human T Cell Nucleofector Kit (Lonza, Basel, Switzerland) according to the manufacturer's instructions. The Amaxa Nucleofector program U-014 was used for transfection.\nTo further investigate the role of p53 in Roc-A-mediated protection of T cells against DNA damage-induced apoptosis, we performed a p53 knock-down experiment using a siRNA approach (FIG. 4a, upper panel). […] Therefore, we examined the effect of Roc-A on p53 knock-out (KO) cells."}, "[4]": {"tested_on": "Hut-78 (T cell lymphoma), p53 mutated", "assay": "Etoposide-induced cell death in Hut-78", "type": "cell-based, human", "conditions": "Hut-78 (FIG. 5a)", "description": "as §1\n(§2) Since Roc-A-mediated protection of non-malignant cells from DNA-damage-induced cell death is largely p53-dependent, we predicted that Roc-A would not protect cancer cells which have non-functional p53. […] 1997; 19: 243-253), Reh (Zhou et al, loc cit.), SKW6.4 (Barbarotto et al., J Cell Biochem. 2008; 104: 595-605) and NCI-H209 (Fujita et al. Int J Oncol. 1999; 15: 927-934) which have a WT p53 protein."}, "[5]": {"tested_on": "SCLC-21H cells (small cell lung cancer), p53 mutated", "assay": "Etoposide-induced cell death in SCLC-21H", "type": "cell-based, human", "conditions": "SCLC-21H (FIG. 5a)", "description": "as §1, §2"}, "[6]": {"tested_on": "protein synthesis in T cells", "assay": "Translation assay: [35S]methionine incorporation in T cells", "type": "cell-based, human", "conditions": "T cells (FIG. 6b)", "description": "The relative amount of protein synthesis was determined by measuring the amount of incorporation of ^35S-methionine into the protein. Briefly, cells were pre-cultured in methionine-free medium (supplemented with 10% dialyzed FCS) for 3 h, followed by incubation with 3.5 μCi of ^35S-methionine-labeling mix (PerkinElmer, Waltham, Mass., USA) per 8×10^5 cells for 6 h as indicated. After the treatment, cells were washed twice with ice-cold PBS and lysed in RIPA buffer. 50 μl of each lysate were added to 1 ml of Liquid Scintillation Cocktail solution (Beckman Coulter, Brea, Calif., USA) and the amount of incorporated radioactivity was determined by liquid scintillation counting.\nRoc-A has been well documented to inhibit protein translation (Polier et al., Chem Biol. 2012; 19: 1093-1104; Sadlish et al., ACS Chem Biol. 2013; doi:10.1021/cb400158t; Bleumink et al., Cell Death Differ. 2011; 18: 362-370; Cencic et al., PloS one. 2009; 4: e5223). Thus, we expected that Roc-A-mediated suppression of genotoxin-induced p53 upregulation may be regulated by inhibition of p53 protein synthesis."}, "[7]": {"tested_on": "non-malignant cells", "assay": "Fold change in cell death on raising the Etoposide dose, non-malignant cells (FIG. 9a-b)", "type": "cell-based", "conditions": "75 nM Roc-A in parallel to Etoposide, 6.25 μM to 50 μM, 24 h", "description": "(a) Cells from (b) were grouped into malignant and non-malignant cells. Shown are means of three independent experiments. Abbreviations; HSPCs=hematopoietic stem and progenitor cells. (c-d) Malignant and non-malignant cells were exposed to ionizing radiation (IR) in the presence of 75 nM Roc-A or solvent (DMSO) and cell death was determined after 24 h by DNA fragmentation. Depicted is the fold-change in cell death that was measured when doses of IR were increased from 2 Gy to 10 Gy. (c) Cells from (d) were grouped into malignant and non-malignant cells. Shown are means of three independent experiments.\nas §1\nRoc-A specifically prevents the cause of chemotherapeutic and radiation-induced side-effects, i.e., the death of healthy cells. […] Consequently, high-dose therapy is not possible, as side effects would be too high."}}}
{"smiles": "COc1ccc([C@@]23Oc4cc(OC)cc(OC)c4[C@]2(O)[C@H](O)[C@H](C(=O)N(C)C)[C@H]3c2ccccc2)cc1", "note": "[Roc-A, (1R,2R,3S,3aR,8bS)-1,8b-dihydroxy-6,8-dimethoxy-3a-(4-methoxyphenyl)-N,N-dimethyl-3-phenyl-2,3-dihydro-1H-cyclopenta[b][1]benzofuran-2-carboxamide]", "values": [{"measurement": "Radioprotective effect by time of Roc-A addition", "setting": "[1]; Roc-A 1 h before radiation (10 Gy) (FIG. 1d)", "value": "highest"}, {"measurement": "Radioprotective effect (percent of protection from IR-induced apoptosis)", "setting": "[1]; Roc-A 4 h after radiation (10 Gy) (FIG. 1d)", "value": "higher than 50%"}, {"measurement": "Ionizing radiation-induced apoptosis in T cells", "setting": "[1]; increasing doses of IR, different concentrations of Roc-A, 24 h (FIG. 1e)", "value": "reduced ionizing radiation-induced apoptosis in T cells"}, {"measurement": "Protection against Etoposide-induced apoptosis", "setting": "[2]", "value": "protected"}, {"measurement": "Etoposide-induced apoptosis in p53-knockdown cells", "setting": "[3]", "value": "could still further down-regulate Etoposide-induced apoptosis in p53-knockdown cells"}, {"measurement": "Protection against Etoposide-induced cell death", "setting": "[4]", "value": "did neither protect"}, {"measurement": "Protection against Etoposide-induced cell death", "setting": "[5]", "value": "did neither protect"}, {"measurement": "Inhibition of [35S]methionine incorporation (protein translation)", "setting": "[6]", "value": "inhibited [^35S]methionine incorporation at different degrees"}, {"measurement": "Change in cell death on increased Etoposide doses with Roc-A", "setting": "[7]", "value": "only resulted in increased cell death in malignant cells"}]}
